Experimental data as given in PMC9414584, “Synthesis and Biological Evaluation of Indole-2-Carboxamides with Potent Apoptotic Antiproliferative Activity as EGFR/CDK2 Dual Inhibitors” (Pharmaceuticals, 2022).
Where “and” joins values, the source holds several entries; their conditions need not be identical. Identical values can stand only once.

Assays:
[1] = Cell viability assay (MTT) on MCF-10A cells; format: cell-based; settings: human, MCF-10A mammary gland epithelial cells
Procedure: (§1) The MCF-10A (human mammary gland epithelial) cell line was used in the cell viability experiment. Compounds 5a–k, 6a–c, and 7 were incubated with MCF-10A cells for 4 days at 50 µM concentration, and the viability of cells was determined using the 3-(4,5-dimethylthiazol-2-yl)-2,5-diphenyltetrazolium bromide (MTT) test.. All compounds had no cytotoxic effects, and the vitality of the cells was more than 83% for most of the compounds examined.
as §1, with “test.” for “test.. All compounds had no cytotoxic effects, and the vitality of the cells was more than 83% for most of the compounds examined.”

[2] = tested on: epithelial cancer cell line (A-549); assay: Antiproliferative MTT assay, A-549; format: cell-based; settings: Homo sapiens, A549; A-549, MTT; read-out: Antiproliferative Activity IC50 ± SEM A-549
From the text: (§2) Using the MTT assay with doxorubicin as the reference drug, the antiproliferative activities of 5a–k, 6a–c, and 7 against four human cancer cell lines, including pancreas cancer cell line (Panc-1), breast cancer cell line (MCF-7), colon cancer cell line (HT-29), and epithelial cancer cell line (A-549) were investigated.

[3] = tested on: breast cancer cell line (MCF-7); assay: Antiproliferative MTT assay, MCF-7; format: cell-based; settings: Homo sapiens, MCF7; MCF-7, MTT; read-out: Antiproliferative Activity IC50 ± SEM MCF-7
From the text: as §2

[4] = tested on: pancreas cancer cell line (Panc-1); assay: Antiproliferative MTT assay, Panc-1; format: cell-based; settings: Homo sapiens; Panc-1, MTT; read-out: Antiproliferative Activity IC50 ± SEM Panc-1
From the text: as §2

[5] = tested on: colon cancer cell line (HT-29); assay: Antiproliferative MTT assay, HT-29; format: cell-based; settings: Homo sapiens; HT-29, MTT; read-out: Antiproliferative Activity IC50 ± SEM HT-29
From the text: as §2

[6] = tested on: four human cancer cell lines (Panc-1, MCF-7, HT-29, A-549); assay: Antiproliferative MTT assay, average of four cancer cell lines (mean GI50); format: cell-based; settings: for IC50: Homo sapiens, average of A-549, MCF-7, Panc-1, HT-29, read-out: Antiproliferative Activity IC50 Average (GI50 against the four cell lines); for fold less potent than 5e (mean GI50): ratio of mean GI50 vs compound 5e
EGFR = EGFR (Homo sapiens, UniProt P00533); assay: EGFR-TK inhibitory assay; format: biochemical; settings: read-out: EGFR Inhibition IC50 ± SEM
CDK2 enzyme = CDK2 enzyme (Homo sapiens, UniProt P24941); assay: CDK2 inhibitory assay
[7] = tested on: Caspase-8 in MCF-7 breast cancer cell line; assay: Caspase-8 level in MCF-7 cells; format: cell-based, human
[8] = tested on: Caspase-9 in MCF-7 breast cancer cell line; assay: Caspase-9 level in MCF-7 cells; format: cell-based, human
[9] = tested on: Cytochrome C in MCF-7 human breast cancer cell line; assay: Cytochrome C assay in MCF-7 cells; format: cell-based
Procedure: The quantity of cytochrome C within the cell is important for activating caspases and commencing the intrinsic apoptosis process. […] The findings add to the evidence that apoptosis can be attributed to Cytochrome C overexpression and activation of the intrinsic apoptotic pathway triggered by the investigated compounds.
Indole-2-carboxamide derivatives 5d, 5e, and 5h were evaluated as Cytochrome C activators in the MCF-7 human breast cancer cell line.

[10] = tested on: Bax in breast cancer cell line (MCF-7); assay: Bax level assay in MCF-7 cells; format: cell-based, human
[11] = tested on: Bcl-2 in breast cancer cell line (MCF-7); assay: Bcl-2 level assay in MCF-7 cells; format: cell-based, human
p53 in MCF-7 = assay: p53 transcription/level in MCF-7; format: cell-based, human; settings: MCF-7 cells
From the text: p53 is a unique protein that participates in several physiological processes such as cell metabolism, stem cell maintenance, and cell adhesion. Because p53 is frequently inactivated in cancer cells, the cells are unable to undergo apoptosis. Similarly, activating, or stabilizing p53 aids cancer cells in normalizing p53-controlled physiological processes and increasing apoptotic activity.

[12] = tested on: Caspase-3 in MCF-7 breast cancer cell line; assay: Caspase-3 level in MCF-7 cells

EGFR, sequence (P00533 25-1210): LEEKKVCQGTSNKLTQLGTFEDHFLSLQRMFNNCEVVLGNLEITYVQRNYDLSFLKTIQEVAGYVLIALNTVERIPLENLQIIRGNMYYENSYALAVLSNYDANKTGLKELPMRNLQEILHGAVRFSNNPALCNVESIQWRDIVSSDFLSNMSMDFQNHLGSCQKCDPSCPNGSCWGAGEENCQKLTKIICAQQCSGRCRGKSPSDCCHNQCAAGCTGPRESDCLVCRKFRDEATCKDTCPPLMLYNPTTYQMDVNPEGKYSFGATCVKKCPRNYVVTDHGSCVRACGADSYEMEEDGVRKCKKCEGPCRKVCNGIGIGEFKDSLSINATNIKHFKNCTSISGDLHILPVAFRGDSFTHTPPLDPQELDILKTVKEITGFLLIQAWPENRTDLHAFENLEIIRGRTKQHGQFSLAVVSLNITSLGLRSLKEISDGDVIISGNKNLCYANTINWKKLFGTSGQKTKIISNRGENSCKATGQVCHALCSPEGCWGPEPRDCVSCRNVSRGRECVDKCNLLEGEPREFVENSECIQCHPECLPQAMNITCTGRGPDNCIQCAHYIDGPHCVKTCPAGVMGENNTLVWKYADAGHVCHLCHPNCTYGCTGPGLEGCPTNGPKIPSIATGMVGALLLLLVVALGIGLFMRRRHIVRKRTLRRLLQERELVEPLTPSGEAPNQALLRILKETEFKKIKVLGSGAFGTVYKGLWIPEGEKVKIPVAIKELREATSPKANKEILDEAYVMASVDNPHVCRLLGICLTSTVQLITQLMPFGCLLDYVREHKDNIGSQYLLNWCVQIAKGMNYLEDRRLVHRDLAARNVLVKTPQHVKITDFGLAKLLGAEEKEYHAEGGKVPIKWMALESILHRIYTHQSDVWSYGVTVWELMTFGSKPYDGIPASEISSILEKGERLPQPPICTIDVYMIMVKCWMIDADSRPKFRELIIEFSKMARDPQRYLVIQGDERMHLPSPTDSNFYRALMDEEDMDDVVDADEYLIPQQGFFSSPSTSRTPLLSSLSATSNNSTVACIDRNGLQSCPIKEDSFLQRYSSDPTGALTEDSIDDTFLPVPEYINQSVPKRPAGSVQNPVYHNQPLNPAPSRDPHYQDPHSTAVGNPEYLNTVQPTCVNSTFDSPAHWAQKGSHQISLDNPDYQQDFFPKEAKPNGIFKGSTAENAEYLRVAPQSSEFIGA

IC50 [2] [nM]	IC50 [3] [nM]	IC50 [4] [nM]	IC50 [5] [nM]	IC50 [6] [nM]	melting point [°C]	IC50 (CDK2 enzyme) [nM]	SMILES	viability at 4 days, 50 µM [1] [%]	other results
1400 ± 200	1200 ± 100	1500 ± 200	1500 ± 200	1400	192 to 194	19	Cc1c(C(=O)NCCc2ccc(N3CCCCC3)cc2)[nH]c2c(F)cc(F)cc12 [Compound 5k, 5,7-Difluoro-3-methyl-N-(4-(piperidin-1-yl)phenethyl)-1H-indole-2-carboxamide]	87	IC50 (EGFR): 129 ± 11 nM
2900 ± 300	2600 ± 200	2800 ± 200	2900 ± 200	2800	165 to 167	–	Cc1c(C(=O)N2CCN(c3ccccc3)CC2)[nH]c2ccc(Cl)cc12 [Compound 6a, (5-Chloro-3-methyl-1H-indol-2-yl)(4-phenylpiperazin-1-yl)methanone]	90	–
2200 ± 200	2100 ± 200	2400 ± 200	2500 ± 200	2300	171 to 173	–	Cc1c(C(=O)N2CCN(c3ccccc3)CC2)[nH]c2c(F)cc(F)cc12 [Compound 6c, (5,7-Difluoro-3-methyl-1H-indol-2-yl)(4-phenylpiperazin-1-yl)methanone]	89	–
2500 ± 200	2300 ± 200	2650 ± 200	2800 ± 200	2600	180 to 182	–	Cc1c(C(=O)N2CCN(c3ccccc3)CC2)[nH]c2cc(Cl)ccc12 [Compound 6b, (6-Chloro-3-methyl-1H-indol-2-yl)(4-phenylpiperazin-1-yl)methanone]	91	–
4100 ± 400	4000 ± 400	4400 ± 400	4600 ± 400	4300	203 to 205	–	Cc1c(C(=O)NCc2ccccc2)[nH]c2ccc(Cl)cc12 [Compound 7, N-Benzyl-5-chloro-3-methyl-1H-indole-2-carboxamide]	91	–

More lines, now with the values behind:

SMILES	IC50 [2] [nM]	IC50 [3] [nM]	IC50 [4] [nM]	IC50 [5] [nM]	IC50 [6] [nM]	melting point [°C]	IC50 (CDK2 enzyme) [nM]	viability at 4 days, 50 µM [1] [%]	other results
Cc1c(C(=O)NCCc2ccc(N3CCOCC3)cc2)[nH]c2c(Cl)cc(Cl)cc12 [Compound 5i, 5,7-Dichloro-3-methyl-N-(4-morpholinophenethyl)-1H-indole-2-carboxamide]	1550 ± 200	1300 ± 100	1600 ± 200	1650 ± 200	1500	185 to 187	27 ± 3	90	IC50 (EGFR): 137 ± 12 nM
Cc1c(C(=O)NCCc2ccccc2)[nH]c2ccc(Cl)cc12 [Compound 5a, 5-Chloro-3-methyl-N-phenethyl-1H-indole-2-carboxamide]	3700 ± 300	3200 ± 300	3900 ± 300	3900 ± 300	3700	182 to 184	–	89	fold less potent than 5e (mean GI50) [6]: roughly four-fold
Cc1c(C(=O)NCCc2ccc(N3CCOCC3)cc2)[nH]c2ccc(Cl)cc12 [Compound 5d, 5-Chloro-3-methyl-N-(4-morpholinophenethyl)-1H-indole-2-carboxamide]	1050 ± 100	900 ± 100	1100 ± 100	1100 ± 100	1050	210 to 212	23 ± 2	89	Caspase-8 Conc [7]: 1.94 ng/mL; Caspase-9 Conc [8]: 16.90 ng/mL; Cytochrome C Conc [9]: 0.70 ng/mL; Bax Conc [10]: 290 pg/mL and 289.70 ± 2.50 pg/mL; Bcl-2 Conc [11]: 0.89 ng/mL; p53 Conc (p53 in MCF-7): 1375 pg/mL and 1375 ± 15 pg/mL; Caspase-3 Conc [12]: 570.00 ± 5.00 pg/mL
Cc1c(C(=O)NCCc2ccc(N3CCCCC3)cc2)[nH]c2c(Cl)cc(Cl)cc12 [Compound 5h, 5,7-Dichloro-3-methyl-N-(4-(piperidin-1-yl)phenethyl)-1H-indole-2-carboxamide]	1000 ± 100	900 ± 100	1200 ± 100	1200 ± 100	1100	178 to 180	11 ± 1	87	IC50 (EGFR): 118 ± 10 nM; Caspase-8 Conc [7]: 1.88 ng/mL; Caspase-8 Fold Change ([7]; vs control cells): 9.50 fold; Caspase-9 Conc [8]: 16.65 ng/mL; Caspase-9 Fold Change ([8]; vs control cells): 17.50 fold; Cytochrome C Conc [9]: 0.65 ng/mL; Cytochrome C Fold Change ([9]; vs untreated control cells): 13 fold; Caspase-3 Conc [12]: 537.50 ± 5.00 pg/mL; Caspase-3 Fold Change ([12]; vs control untreated cells): 8.20 fold
Cc1c(C(=O)NCCc2ccc(N3CCCCC3)cc2)[nH]c2ccc(Cl)cc12 [Compound 5c, 5-Chloro-3-methyl-N-(4-(piperidin-1-yl)phenethyl)-1H-indole-2-carboxamide]	1700 ± 200	1400 ± 200	1800 ± 200	1800 ± 200	1700	216 to 218	–	87	fold less potent than 5e (mean GI50) [6]: at least 1.8 fold; fold reduction of mean GI50 potency vs 5d ([6]; ratio of mean GI50 vs compound 5d): ≥ 1.6 fold
Cc1c(C(=O)NCCc2ccc(N(C)C)cc2)[nH]c2ccc(Cl)cc12 [Compound 5b, 5-Chloro-N-(4-(dimethylamino)phenethyl)-3-methyl-1H-indole-2-carboxamide]	3200 ± 300	2900 ± 300	3500 ± 300	3600 ± 300	3300	202 to 204	–	87	–
Cc1c(C(=O)NCCc2ccccc2)[nH]c2cc(Cl)ccc12 [Compound 5f, 6-Chloro-3-methyl-N-phenethyl-1H-indole-2-carboxamide]	1900 ± 200	1700 ± 200	2100 ± 200	2100 ± 200	1950	170 to 172	–	90	times more potent than 5a ([6]; vs compound 5a): 1.9 times
Cc1c(C(=O)NCCc2ccccc2)[nH]c2c(F)cc(F)cc12 [Compound 5j, 5,7-Difluoro-3-methyl-N-phenethyl-1H-indole-2-carboxamide]	1200 ± 100	1000 ± 100	1300 ± 100	1300 ± 100	1200	198 to 200	34 ± 3	83	IC50 (EGFR): 98 ± 8 nM
Cc1c(C(=O)NCCc2ccc(N3CCCCC3)cc2)[nH]c2cc(Cl)ccc12 [Compound 5g, 6-Chloro-3-methyl-N-(4-(piperidin-1-yl)phenethyl)-1H-indole-2-carboxamide]	4900 ± 500	4800 ± 500	5200 ± 500	5100 ± 500	5000	218 to 220	–	89	times lower antiproliferative efficacy than 5c ([6]; vs compound 5c): 3 times
